From ChEMBL document CHEMBL4304793, “Evaluation of a Series of β-Secretase 1 Inhibitors Containing Novel Heteroaryl-Fused-Piperazine Amidine Warheads” (ACS Med Chem Lett, 2019)

assay: Dissociation constant, pKa of compound; type: physicochemical

SMILES	pKa
C[C@@]1(c2cc(NC(=O)c3ccc(C#N)cn3)ccc2F)Cn2ncnc2C(N)=N1	6.5
C[C@@]1(c2cc(NC(=O)c3ccc(C#N)cn3)ccc2F)Cn2nnnc2C(N)=N1	5.1
C[C@@]1(c2cc(NC(=O)c3ccc(C#N)cn3)ccc2F)Cn2cnnc2C(N)=N1	6.4
C[C@@]1(c2cccc(NC(=O)c3ccc(C#N)cn3)c2)Cn2nccc2C(N)=N1	8.5
C[C@@]1(c2cc(NC(=O)c3ccc(C#N)cn3)ccc2F)Cn2ccnc2C(N)=N1	8.2

Further lines, results first:

pKa	SMILES
10.3	C[C@@]1(c2cc(NC(=O)c3ccc(C#N)cn3)ccc2F)Cn2cccc2C(N)=N1
7.1	C[C@@]1(c2cc(NC(=O)c3ccc(C#N)cn3)ccc2F)Cn2nncc2C(N)=N1
9	C[C@@]1(c2cc(NC(=O)c3ccc(C#N)cn3)ccc2F)Cn2cncc2C(N)=N1
